Where a SMILES comes first, the peptide text is derived from it. [ ]: non-standard residue; d: D form. dTrp(1-Me) = Cn1cc(C[C@@H](N)C(=O)O)c2ccccc21
Experiments:
[1] = Change in Cmax in rat at 37 umol/kg, po measured upto 72 hrs by LC-MS/MS analysis; format: ADME, organism-based; conditions: in vivo, at 37 µmol/kg
[2] = Change in AUC (infinity) in rat at 37 umol/kg, po measured upto 72 hrs by LC-MS/MS analysis; format: ADME, organism-based; conditions: in vivo, at 37 µmol/kg
[3] = Change in normalised Cmax in rat at 10 mg/kg, po measured upto 72 hrs by LC-MS/MS analysis; format: ADME, organism-based; conditions: in vivo
[4] = Dose normalized Cmax in rat at 10 mg/kg, po measured upto 72 hrs by LC-MS/MS analysis; format: ADME, organism-based; conditions: in vivo
[5] = Chemical stability of compound in simulated intestinal fluid assessed as compound remaining at 5 uM measured after 3 hrs by LC-MS/MS analysis; format: ADME, physicochemical; conditions: read-out: Stabilty
[6] = Dose normalized AUC (0 to infinity) in rat at 10 mg/kg, po measured upto 72 hrs by LC-MS/MS analysis; format: ADME, organism-based; conditions: in vivo
[7] = Chemical stability of compound in 0.1 N aqueous HCl buffer assessed as compound remaining at pH 1 at 5 uM measured after 24 hrs by LC-MS/MS analysis; format: physicochemical; conditions: pH 1, 24 h
[8] = Stability in human plasma assessed as parent compound remaining measured after 24 hrs by LC-MS/MS analysis; format: ADME, cell-free; conditions: read-out: Stabilty
[9] = Stability in rat plasma assessed as parent compound remaining measured after 2 hrs by LC-MS/MS analysis; format: ADME, cell-free; conditions: read-out: Stabilty
[10] = Chemical stability of compound in PBS buffer assessed as compound remaining at pH 7.4 at 5 uM measured after 24 hrs by LC-MS/MS analysis; format: physicochemical; conditions: read-out: Stabilty
[11] = Chemical stability of compound in simulated gastric fluid assessed as compound remaining at 5 uM measured after 1.5 hrs by LC-MS/MS analysis; format: ADME, physicochemical; conditions: read-out: Stabilty
[12] = Chemical stability of compound in PBS buffer assessed as compound remaining at pH 7.4 at 5 uM measured after 6 hrs by LC-MS/MS analysis; format: physicochemical; conditions: read-out: Stabilty
[13] = Stability in mouse plasma assessed as parent compound remaining measured after 2 hrs by LC-MS/MS analysis; format: ADME, cell-free; conditions: read-out: Stabilty
[14] = Chemical stability of compound in 0.1 N aqueous HCl buffer assessed as compound remaining at pH 1 at 5 uM measured after 1.5 hrs by LC-MS/MS analysis; format: physicochemical; conditions: pH 1, 1.5 h
[15] = Change in normalised AUCinfinity in rat at 10 mg/kg, po measured upto 72 hrs by LC-MS/MS analysis; format: ADME, organism-based; conditions: in vivo
[16] = Stability in human plasma assessed as parent compound remaining measured after 6 hrs by LC-MS/MS analysis; format: ADME, cell-free; conditions: read-out: Stabilty
[17] = Chemical stability of compound in simulated gastric fluid assessed as compound remaining at 5 uM measured after 24 hrs by LC-MS/MS analysis; format: ADME, physicochemical; conditions: read-out: Stabilty
[18] = Chemical stability of compound in simulated intestinal fluid assessed as compound remaining at 5 uM measured after 24 hrs by LC-MS/MS analysis; format: ADME, physicochemical; conditions: read-out: Stabilty
[19] = Chemical stability of compound in saline assessed as compound remaining at 5 uM measured after 24 hrs by LC-MS/MS analysis; format: physicochemical; conditions: read-out: Stabilty

| SMILES | Activity [1] | Activity [2] | Activity [3] | Cmax/dose [4] | remaining at 3 h, 5 µM [5] | AUC/dose [6] | Stabilty [7] | remaining at 24 h [8] | remaining at 2 h [9] | remaining at 24 h, 5 µM [10] | remaining at 1.5 h, 5 µM [11] | remaining at 6 h, 5 µM [12] | remaining at 2 h [13] | Stabilty [14] | Activity [15] | remaining at 6 h [16] | remaining at 24 h, 5 µM [17] | remaining at 24 h, 5 µM [18] | remaining at 24 h, 5 µM [19] |
| --- | --- | --- | --- | --- | --- | --- | --- | --- | --- | --- | --- | --- | --- | --- | --- | --- | --- | --- | --- |
| Cl.Cn1cc(C[C@@H](NC(=O)[C@H](N)Cc2c[nH]c3ccccc23)C(=O)O)c2ccccc21 |  |  | -82% | 3.2 µM | 53% | 182 µM·h | 87% | 32% | 79% | 45% | 51% | 81% | 82% | 53% | -64% | 77% | 48% | 51% | 87% |
| CCOC(=O)[C@@H](Cc1cn(C)c2ccccc12)NC(=O)[C@@H](N)CCC(N)=O.CS(=O)(=O)O | 4% | -12% |  |  |  |  |  |  |  |  |  |  |  |  |  |  |  |  |  |
| CCOC(=O)[C@@H](Cc1cn(C)c2ccccc12)NC(=O)[C@@H](N)CC(C)C.O=S(=O)(O)c1ccccc1 | 29% | 45% |  |  |  |  |  |  |  |  |  |  |  |  |  |  |  |  |  |
| Cl.Cn1cc(C[C@@H](N)C(=O)N[C@H](Cc2cn(C)c3ccccc23)C(=O)O)c2ccccc21 |  |  | -83% | 3 µM | 81% | 262 µM·h | 91% | 82% | 80% | 34% | 63% | 100% | 65% | 45% | -48% | 92% | 49% | 77% | 91% |
| Cl.Cn1cc(C[C@@H](NC(=O)[C@@H](N)CCC(N)=O)C(=O)O)c2ccccc21 |  |  | -51% | 8.5 µM | 53% | 372 µM·h | 78% | 83% | 100% | 74% | 83% | 100% | 49% | 65% | -27% | 93% | 83% | 0% | 78% |
| CC(C)C(NC(=O)[C@H](N)Cc1cn(C)c2ccccc12)C(=O)O.Cl (single isomer, unassigned) |  |  | -91% | 1.6 µM | 62% | 202 µM·h | 98% | 39% | 100% | 37% | 54% | 99% | 89% | 51% | -60% | 68% | 49% | 64% | 98% |
| CCOC(=O)[C@@H](Cc1cn(C)c2ccccc12)NC(=O)[C@@H](N)CC(C)C.O=S(=O)(O)O | -23% | -5% |  |  |  |  |  |  |  |  |  |  |  |  |  |  |  |  |  |
| Cl.Cn1cc(C[C@@H](NC(=O)[C@@H](N)CCC(=O)O)C(=O)O)c2ccccc21 |  |  | 2% | 17.6 µM | 88% | 574 µM·h | 91% | 86% | 100% | 60% | 90% | 81% | 100% | 99% | 13% | 90% | 88% | 85% | 91% |
| CCOC(=O)[C@@H](Cc1cn(C)c2ccccc12)NC(=O)[C@@H](N)CCC(N)=O | 5% | -16% |  |  |  |  |  |  |  |  |  |  |  |  |  |  |  |  |  |
| CCOC(=O)[C@@H](Cc1cn(C)c2ccccc12)NC(=O)[C@@H](N)CCC(N)=O.O=P(O)(O)O | -32% | -28% |  |  |  |  |  |  |  |  |  |  |  |  |  |  |  |  |  |
| CCOC(=O)[C@@H](Cc1cn(C)c2ccccc12)NC(=O)[C@@H](N)CCC(N)=O.O=S(=O)(O)O | 20% | -20% |  |  |  |  |  |  |  |  |  |  |  |  |  |  |  |  |  |
| CCOC(=O)[C@@H](Cc1cn(C)c2ccccc12)NC(=O)[C@@H](N)CC(C)C.CS(=O)(=O)O | 111% | 127% |  |  |  |  |  |  |  |  |  |  |  |  |  |  |  |  |  |

Continued, values first:

| Activity [1] | Activity [2] | Activity [3] | Cmax/dose [4] | remaining at 3 h, 5 µM [5] | AUC/dose [6] | Stabilty [7] | remaining at 24 h [8] | remaining at 2 h [9] | remaining at 24 h, 5 µM [10] | remaining at 1.5 h, 5 µM [11] | remaining at 6 h, 5 µM [12] | remaining at 2 h [13] | Stabilty [14] | Activity [15] | remaining at 6 h [16] | remaining at 24 h, 5 µM [17] | remaining at 24 h, 5 µM [18] | remaining at 24 h, 5 µM [19] | SMILES |
| --- | --- | --- | --- | --- | --- | --- | --- | --- | --- | --- | --- | --- | --- | --- | --- | --- | --- | --- | --- |
| -4% | 10% |  |  |  |  |  |  |  |  |  |  |  |  |  |  |  |  |  | Cn1cc(C[C@@H](NC(=O)[C@@H](N)CCCCN)C(=O)O)c2ccccc21.O=S(=O)(O)O |
| -17% | -13% |  |  |  |  |  |  |  |  |  |  |  |  |  |  |  |  |  | Cn1cc(C[C@@H](NC(=O)[C@@H](N)CCCCN)C(=O)O)c2ccccc21 |
|  |  | -31% | 11.9 µM | 91% | 425 µM·h | 92% | 75% | 19% | 92% | 79% | 89% | 66% | 96% | -16% | 87% | 80% | 0% | 92% | Cl.Cn1cc(C[C@@H](NC(=O)[C@@H](N)Cc2ccccc2)C(=O)O)c2ccccc21 |
|  |  | -54% | 7.9 µM | 65% | 329 µM·h | 90% | 11% | 0% | 96% | 89% | 96% | 0% | 99% | -35% | 68% | 86% | 0% | 90% | CCOC(=O)[C@@H](Cc1cn(C)c2ccccc12)NC(=O)[C@@H](N)Cc1ccccc1.Cl |
|  |  | -22% | 13.4 µM | 36% | 310 µM·h | 40% | 0% | 92% | 34% | 20% | 58% | 94% | 100% | -39% | 65% | 25% | 12% | 40% | C[C@H](N)C(=O)N[C@H](Cc1cn(C)c2ccccc12)C(=O)O.Cl |
| -79% | -64% |  |  |  |  |  |  |  |  |  |  |  |  |  |  |  |  |  | Cn1cc(C[C@@H](N)C(=O)OCC2CCNCC2)c2ccccc21.O=P(O)(O)O |
| 4% | -17% |  |  |  |  |  |  |  |  |  |  |  |  |  |  |  |  |  | Cn1cc(C[C@@H](NC(=O)[C@@H](N)CCCCN)C(=O)O)c2ccccc21.O=P(O)(O)O |
| -3% | 3% |  |  |  |  |  |  |  |  |  |  |  |  |  |  |  |  |  | Cn1cc(C[C@@H](NC(=O)CN)C(=O)O)c2ccccc21.O=P(O)(O)O (H-Gly-[dTrp(1-Me)]-OH) |
| -27% | -27% |  |  |  |  |  |  |  |  |  |  |  |  |  |  |  |  |  | CS(=O)(=O)O.Cn1cc(C[C@@H](N)C(=O)OCC(O)CO)c2ccccc21 (some centres undefined) |
| 2% | 21% |  |  |  |  |  |  |  |  |  |  |  |  |  |  |  |  |  | Cn1cc(C[C@@H](N)C(=O)OCC(O)CO)c2ccccc21.O=S(=O)(O)O (some centres undefined) |
